Laboratory results: publication PMC5218480 (PLoS ONE, 2017)

Tested on: MV-4-11 cells
Assay: Gene expression microarray analysis (Affymetrix PrimeView) and GSEA
Type: cell-based, human
Set-up: RFU PODN (11730768_x_at) / Fold change /veh PODN (11730768_x_at) / RFU LINC00158 (11744669_a_at) / Fold change /veh LINC00158 (11744669_a_at) / RFU DUSP10 (11751237_a_at) / Fold change /veh DUSP10 (11751237_a_at) / RFU ID3 (11757404_x_at) / Fold change /veh ID3 (11757404_x_at) / RFU PLEKHG5 (11737974_s_at) / Fold change /veh PLEKHG5 (11737974_s_at) / RFU LRRC4B (11730491_at) / Fold change /veh LRRC4B (11730491_at) / RFU GIMAP4 (11747438_a_at) / Fold change /veh GIMAP4 (11747438_a_at) / RFU KRT8 (11758183_x_at) / Fold change /veh KRT8 (11758183_x_at) / RFU CNN1 (11734310_a_at) / Fold change /veh CNN1 (11734310_a_at) / RFU VPS37D (11726825_at) / Fold change /veh VPS37D (11726825_at) / RFU C10orf10 (11716522_x_at) / Fold change /veh C10orf10 (11716522_x_at) / RFU KIR2DL2 /// KIR2DL4 /// KIR2DL5A /// KIR2DL5B /// KIR2DS1 /// KIR2DS2 /// KIR2DS3 /// KIR2DS4 /// KIR3DL3 /// KIR3DL3 /// KIR3DS1 (11738374_at) / Fold change /veh KIR2DL2 /// KIR2DL4 /// KIR2DL5A /// KIR2DL5B /// KIR2DS1 /// KIR2DS2 /// KIR2DS3 /// KIR2DS4 /// KIR3DL3 /// KIR3DL3 /// KIR3DS1 (11738374_at) / RFU C1QL1 (11718748_at) / Fold change /veh C1QL1 (11718748_at) / RFU TMPRSS4 (11747572_a_at) / Fold change /veh TMPRSS4 (11747572_a_at) / RFU HAMP (11756126_x_at) / Fold change /veh HAMP (11756126_x_at) / RFU RNFT2 (11725882_a_at) / Fold change /veh RNFT2 (11725882_a_at) / RFU NR4A2 (11747474_a_at) / Fold change /veh NR4A2 (11747474_a_at) / RFU ABCC12 (11746883_a_at) / Fold change /veh ABCC12 (11746883_a_at) / RFU TMEM136 (11760407_x_at) / Fold change /veh TMEM136 (11760407_x_at) / RFU CLDN22 /// WWC2 (11732394_at) / Fold change /veh CLDN22 /// WWC2 (11732394_at) / RFU HLA-DPB1 (11760878_x_at) / Fold change /veh HLA-DPB1 (11760878_x_at) / RFU SPINT1 (11716480_a_at) / Fold change /veh SPINT1 (11716480_a_at) / RFU GAP43 (11754022_s_at) / Fold change /veh GAP43 (11754022_s_at) / RFU A4GNT (11735810_at) / Fold change /veh A4GNT (11735810_at) / RFU PRB3 (11715151_x_at) / Fold change /veh PRB3 (11715151_x_at) / RFU TUBB4B (11761932_at) / Fold change /veh TUBB4B (11761932_at) / RFU CAPN14 (11732068_a_at) / Fold change /veh CAPN14 (11732068_a_at) / RFU TMCC2 (11721928_a_at) / Fold change /veh TMCC2 (11721928_a_at) / RFU IRGQ (11745062_a_at) / Fold change /veh IRGQ (11745062_a_at) / RFU FAM174B (11720279_a_at) / Fold change /veh FAM174B (11720279_a_at) / RFU TMPRSS4 (11748680_a_at) / Fold change /veh TMPRSS4 (11748680_a_at) / RFU FAM212B (11763350_a_at) / Fold change /veh FAM212B (11763350_a_at) / RFU PLEKHG5 (11743358_a_at) / Fold change /veh PLEKHG5 (11743358_a_at) / RFU ZSCAN30 (11745921_a_at) / Fold change /veh ZSCAN30 (11745921_a_at) / RFU CMKLR1 (11741424_a_at) / Fold change /veh CMKLR1 (11741424_a_at) / RFU LOC101060620 /// MAPK8IP1 (11723275_at) / Fold change /veh LOC101060620 /// MAPK8IP1 (11723275_at) / RFU SPTSSB (11747773_x_at) / Fold change /veh SPTSSB (11747773_x_at) / RFU PRSS12 (11739890_at) / Fold change /veh PRSS12 (11739890_at) / RFU BIN1 (11741810_x_at) / Fold change /veh BIN1 (11741810_x_at) / RFU WNT11 (11732464_a_at) / Fold change /veh WNT11 (11732464_a_at) / RFU C10orf10 (11716521_a_at) / Fold change /veh C10orf10 (11716521_a_at) / RFU C5orf56 (11738089_at) / Fold change /veh C5orf56 (11738089_at) / RFU CYB561 (11721691_x_at) / Fold change /veh CYB561 (11721691_x_at) / RFU ANKRD19P (11752326_a_at) / Fold change /veh ANKRD19P (11752326_a_at) / RFU OR2T12 /// OR2T33 /// OR2T8 (11738714_s_at) / Fold change /veh OR2T12 /// OR2T33 /// OR2T8 (11738714_s_at) / RFU VCAN (11748164_a_at) / Fold change /veh VCAN (11748164_a_at) / RFU JSRP1 (11732532_at) / Fold change /veh JSRP1 (11732532_at) / RFU KRTAP10-11 (11738290_x_at) / Fold change /veh KRTAP10-11 (11738290_x_at) / RFU MYO3A (11730013_a_at) / Fold change /veh MYO3A (11730013_a_at) / RFU EBF3 (11725865_a_at) / Fold change /veh EBF3 (11725865_a_at) / RFU CAMK2N1 (11719241_x_at) / Fold change /veh CAMK2N1 (11719241_x_at) / RFU C5orf56 (11738088_a_at) / Fold change /veh C5orf56 (11738088_a_at) / RFU OLFML3 (11715873_a_at) / Fold change /veh OLFML3 (11715873_a_at) / RFU LOC100653217 /// NTM (11731650_a_at) / Fold change /veh LOC100653217 /// NTM (11731650_a_at) / RFU MAPK11 (11762145_a_at) / Fold change /veh MAPK11 (11762145_a_at) / RFU FIZ1 (11724087_x_at) / Fold change /veh FIZ1 (11724087_x_at) / RFU OASL (11726364_x_at) / Fold change /veh OASL (11726364_x_at) / RFU SOX15 (11748057_x_at) / Fold change /veh SOX15 (11748057_x_at) / RFU CD79A (11719716_a_at) / Fold change /veh CD79A (11719716_a_at) / RFU HIST1H1D (11736915_at) / Fold change /veh HIST1H1D (11736915_at) / RFU CASKIN2 (11723855_a_at) / Fold change /veh CASKIN2 (11723855_a_at) / RFU LOC730098 (11760151_x_at) / Fold change /veh LOC730098 (11760151_x_at) / RFU OR4N2 (11742367_at) / Fold change /veh OR4N2 (11742367_at) / RFU PRRT2 (11749266_a_at) / Fold change /veh PRRT2 (11749266_a_at) / RFU SNX32 (11753110_a_at) / Fold change /veh SNX32 (11753110_a_at) / RFU CDHR5 (11726645_a_at) / Fold change /veh CDHR5 (11726645_a_at) / RFU RCAN1 (11760418_a_at) / Fold change /veh RCAN1 (11760418_a_at) / RFU FAM167A (11723789_a_at) / Fold change /veh FAM167A (11723789_a_at) / RFU FAM26E (11764081_at) / Fold change /veh FAM26E (11764081_at) / RFU ISYNA1 (11749810_s_at) / Fold change /veh ISYNA1 (11749810_s_at) / RFU ACY1 (11761880_at) / Fold change /veh ACY1 (11761880_at) / RFU 11764098_at / Fold change /veh 11764098_at / RFU SAMD14 (11745864_x_at) / Fold change /veh SAMD14 (11745864_x_at) / RFU NPB (11741838_a_at) / Fold change /veh NPB (11741838_a_at) / RFU TMPRSS6 (11731388_a_at) / Fold change /veh TMPRSS6 (11731388_a_at) / RFU KRTAP10-2 (11738614_at) / Fold change /veh KRTAP10-2 (11738614_at) / RFU ARHGAP8 /// PRR5-ARHGAP8 (11727945_x_at) / Fold change /veh ARHGAP8 /// PRR5-ARHGAP8 (11727945_x_at) / RFU KRTAP5-7 /// NADSYN1 (11734609_at) / Fold change /veh KRTAP5-7 /// NADSYN1 (11734609_at) / RFU RASL12 (11751679_a_at) / Fold change /veh RASL12 (11751679_a_at) / RFU CDKN2B (11736163_a_at) / Fold change /veh CDKN2B (11736163_a_at) / RFU PRF1 (11729649_at) / Fold change /veh PRF1 (11729649_at) / RFU, ZNF638 /// ZNF638-IT1 / Fold change vs veh, ZNF638 /// ZNF638-IT1 / RFU, PANK3 / Fold change vs veh, PANK3 / RFU, SH3YL1 / Fold change vs veh, SH3YL1 / RFU, ZEB2 / Fold change vs veh, ZEB2 / RFU, NRIP1 / Fold change vs veh, NRIP1 / RFU, PTTG1IP / Fold change vs veh, PTTG1IP / RFU, CAPN2 / Fold change vs veh, CAPN2 / RFU, MED14 / Fold change vs veh, MED14 / RFU, SNORA58 / Fold change vs veh, SNORA58 / RFU, C1orf63 / Fold change vs veh, C1orf63 / RFU, LRRFIP1 / Fold change vs veh, LRRFIP1 / RFU, NDUFAF7 / Fold change vs veh, NDUFAF7 / RFU, SLC12A2 / Fold change vs veh, SLC12A2 / RFU, IBTK / Fold change vs veh, IBTK / RFU, ESF1 / Fold change vs veh, ESF1 / Fold change vs veh, TMEM50B / RFU, TAOK1 / Fold change vs veh, TAOK1 / RFU, ACBD3 / Fold change vs veh, ACBD3 / RFU, TMA16 / Fold change vs veh, TMA16 / RFU, RWDD3 / Fold change vs veh, RWDD3 / RFU, BCAT1 / Fold change vs veh, BCAT1 / RFU, EDEM3 / Fold change vs veh, EDEM3 / RFU, TMEM33 / Fold change vs veh, TMEM33 / RFU, WDR75 / Fold change vs veh, WDR75 / RFU, AHCTF1 / Fold change vs veh, AHCTF1 / RFU, TFRC / Fold change vs veh, TFRC / RFU, ZDHHC17 / Fold change vs veh, ZDHHC17 / RFU, NOM1 / Fold change vs veh, NOM1 / RFU, ARL8B / Fold change vs veh, ARL8B / RFU, ZBTB11 / Fold change vs veh, ZBTB11 / RFU, TAMM41 / Fold change vs veh, TAMM41 / RFU, KIAA1704 /// LOC100996395 / Fold change vs veh, KIAA1704 /// LOC100996395 / RFU, ING1 / Fold change vs veh, ING1 / RFU, TRMT61B / Fold change vs veh, TRMT61B / RFU, FUBP3 / Fold change vs veh, FUBP3 / RFU, TP53 / Fold change vs veh, TP53 / RFU, TNKS2 / Fold change vs veh, TNKS2 / RFU, ZFP14 / Fold change vs veh, ZFP14 / RFU, ACTR2 / Fold change vs veh, ACTR2 / RFU, PPP3R1 / Fold change vs veh, PPP3R1 / RFU, PIK3R1 / Fold change vs veh, PIK3R1 / RFU, HNRNPA1 / Fold change vs veh, HNRNPA1 / RFU, RNF170 / Fold change vs veh, RNF170 / RFU, ZNF28 / Fold change vs veh, ZNF28 / RFU, RNGTT / Fold change vs veh, RNGTT / RFU, OGT / Fold change vs veh, OGT / RFU, BRD1 / Fold change vs veh, BRD1 / RFU, MARS / Fold change vs veh, MARS / RFU, ZNF655 / Fold change vs veh, ZNF655 / RFU, FAHD1 / Fold change vs veh, FAHD1 / RFU, BDP1 / Fold change vs veh, BDP1 / RFU, LRRCC1 / Fold change vs veh, LRRCC1 / RFU, ARID1A / Fold change vs veh, ARID1A / RFU, ZNF146 / Fold change vs veh, ZNF146 / RFU, ZNF330 / Fold change vs veh, ZNF330 / RFU, GPN3 / Fold change vs veh, GPN3 / RFU, C9orf123 / Fold change vs veh, C9orf123 / RFU, N4BP2L2 / Fold change vs veh, N4BP2L2 / RFU, ARFIP1 / Fold change vs veh, ARFIP1 / RFU, FAM179B / Fold change vs veh, FAM179B / RFU, BCL10 / Fold change vs veh, BCL10 / RFU, UHRF1BP1L / Fold change vs veh, UHRF1BP1L / RFU, BET1 / Fold change vs veh, BET1 / RFU, CNOT2 / Fold change vs veh, CNOT2 / RFU, ZNF268 / Fold change vs veh, ZNF268 / Fold change vs veh, ZNF507 / RFU, DGCR2 / Fold change vs veh, DGCR2 / RFU, WDSUB1 / Fold change vs veh, WDSUB1 / Fold change vs veh, HSP90B1 /// MIR3652 / RFU, ADSS / Fold change vs veh, ADSS / RFU, GK / Fold change vs veh, GK / RFU, ZNF148 / Fold change vs veh, ZNF148 / RFU, TAF9 / Fold change vs veh, TAF9 / RFU, SLC1A5 / Fold change vs veh, SLC1A5 / RFU, SLMO2 / Fold change vs veh, SLMO2 / RFU, ABCC4 / Fold change vs veh, ABCC4 / RFU, LOC101060439 /// RAP1B / Fold change vs veh, LOC101060439 /// RAP1B / RFU, RFX7 / Fold change vs veh, RFX7 / RFU, GTPBP10 / Fold change vs veh, GTPBP10 / RFU, CNEP1R1 / Fold change vs veh, CNEP1R1 / RFU, BIVM-ERCC5 /// ERCC5 / Fold change vs veh, BIVM-ERCC5 /// ERCC5 / RFU, ILF3 / Fold change vs veh, ILF3 / RFU 11762660_at / Fold change /veh 11762660_at / RFU VCAN (11757783_s_at) / Fold change /veh VCAN (11757783_s_at) / RFU DDX43 (11728927_at) / Fold change /veh DDX43 (11728927_at) / RFU KRT8 (11758188_x_at) / Fold change /veh KRT8 (11758188_x_at) / RFU NKD1 (11759106_at) / Fold change /veh NKD1 (11759106_at) / RFU SRD5A1 (11742802_a_at) / Fold change /veh SRD5A1 (11742802_a_at) / RFU TPSAB1 /// TPSB2 (11721975_s_at) / Fold change /veh TPSAB1 /// TPSB2 (11721975_s_at) / RFU GSTM3 (11746129_a_at) / Fold change /veh GSTM3 (11746129_a_at) / RFU IL23R (11737362_x_at) / Fold change /veh IL23R (11737362_x_at) / RFU TMEM51 (11727254_a_at) / Fold change /veh TMEM51 (11727254_a_at) / RFU PIWIL2 (11732686_x_at) / Fold change /veh PIWIL2 (11732686_x_at) / RFU ORM1 (11744905_x_at) / Fold change /veh ORM1 (11744905_x_at) / RFU CCDC152 (11743942_at) / Fold change /veh CCDC152 (11743942_at) / RFU ECM1 (11717891_a_at) / Fold change /veh ECM1 (11717891_a_at) / RFU IL23R (11748794_a_at) / Fold change /veh IL23R (11748794_a_at) / RFU TNFAIP8L3 (11732012_x_at) / Fold change /veh TNFAIP8L3 (11732012_x_at) / RFU MBOAT4 (11741988_at) / Fold change /veh MBOAT4 (11741988_at) / RFU 11764193_at / Fold change /veh 11764193_at / RFU TMEM53 (11763286_at) / Fold change /veh TMEM53 (11763286_at) / RFU MAGEB2 (11727129_at) / Fold change /veh MAGEB2 (11727129_at) / RFU TMEM200A (11744735_a_at) / Fold change /veh TMEM200A (11744735_a_at) / RFU CCDC152 (11751479_a_at) / Fold change /veh CCDC152 (11751479_a_at) / RFU FAM211A (11726209_a_at) / Fold change /veh FAM211A (11726209_a_at) / RFU RGS16 (11746705_a_at) / Fold change /veh RGS16 (11746705_a_at) / RFU VCAN (11755009_s_at) / Fold change /veh VCAN (11755009_s_at) / RFU RHOB (11743442_s_at) / Fold change /veh RHOB (11743442_s_at) / RFU RGS16 (11720943_a_at) / Fold change /veh RGS16 (11720943_a_at) / RFU RGS16 (11720944_at) / Fold change /veh RGS16 (11720944_at) / RFU, VPS4B / Fold change vs veh, VPS4B / RFU, CREB1 / Fold change vs veh, CREB1 / RFU, DNAJC13 / Fold change vs veh, DNAJC13 / RFU, GNAQ / Fold change vs veh, GNAQ / RFU, CDK5R1 / Fold change vs veh, CDK5R1 / RFU, ZRANB3 / Fold change vs veh, ZRANB3 / RFU, CUL4A / Fold change vs veh, CUL4A / RFU, CCNY / Fold change vs veh, CCNY / RFU, UFL1 / Fold change vs veh, UFL1 / RFU, COG3 / Fold change vs veh, COG3 / RFU, DIAPH2 / Fold change vs veh, DIAPH2 / RFU, SKA2 / Fold change vs veh, SKA2 / RFU, AFF3 / Fold change vs veh, AFF3 / RFU, LMF1 / Fold change vs veh, LMF1 / RFU, IPO11 / Fold change vs veh, IPO11 / RFU, DFFB / Fold change vs veh, DFFB / RFU, FOXP1 / Fold change vs veh, FOXP1 / RFU, CARD8 / Fold change vs veh, CARD8 / RFU, STRN3 / Fold change vs veh, STRN3 / RFU, ADK / Fold change vs veh, ADK / RFU, RASSF2 / Fold change vs veh, RASSF2 / RFU, WIPF1 / Fold change vs veh, WIPF1 / RFU, LARP1B / Fold change vs veh, LARP1B / RFU, RASA1 / Fold change vs veh, RASA1 / RFU, RB1 / Fold change vs veh, RB1 / RFU, PPFIA1 / Fold change vs veh, PPFIA1 / RFU, MAT2A / Fold change vs veh, MAT2A / RFU, CCT5 / Fold change vs veh, CCT5 / RFU, WDR92 / Fold change vs veh, WDR92 / RFU, CUX1 / Fold change vs veh, CUX1 / RFU, TTC7A / Fold change vs veh, TTC7A / RFU, TMEM135 / Fold change vs veh, TMEM135 / RFU, DEPTOR / Fold change vs veh, DEPTOR / RFU, CPM / Fold change vs veh, CPM / RFU, DNAJB6 / Fold change vs veh, DNAJB6 / RFU, CACNA2D3 / Fold change vs veh, CACNA2D3 / RFU, DTX4 / Fold change vs veh, DTX4 / RFU, TFCP2 / Fold change vs veh, TFCP2 / RFU, GMCL1 /// GMCL1P1 / Fold change vs veh, GMCL1 /// GMCL1P1 / RFU, AEBP2 / Fold change vs veh, AEBP2 / RFU, SNHG1 /// SNORD22 /// SNORD25 /// SNORD26 /// SNORD27 /// SNORD28 /// SNORD29 /// SNORD31 / Fold change vs veh, SNHG1 /// SNORD22 /// SNORD25 /// SNORD26 /// SNORD27 /// SNORD28 /// SNORD29 /// SNORD31 / Fold change (Aza/veh), C12orf56 (ProbeSet 11735607_a_at) / Fold change (ACY-1035/veh), C12orf56 (ProbeSet 11735607_a_at) / Fold change (Aza/veh), FGFR1OP (ProbeSet 11751329_s_at) / Fold change (ACY-1035/veh), FGFR1OP (ProbeSet 11751329_s_at) / Fold change (Aza/veh), VPS36 (ProbeSet 11739960_a_at) / Fold change (ACY-1035/veh), VPS36 (ProbeSet 11739960_a_at) / RFU SYPL1 (11715823_x_at) / Fold change /veh SYPL1 (11715823_x_at) / RFU IGFBP7 (11715501_s_at) / Fold change /veh IGFBP7 (11715501_s_at) / RFU REEP3 (11722064_at) / Fold change /veh REEP3 (11722064_at) / RFU IGLL1 (11728026_x_at) / Fold change /veh IGLL1 (11728026_x_at): dose or concentration left out as unconfirmed
Details: MV-4-11 cells, 48 hours

SMILES: Nc1ncn([C@@H]2O[C@H](CO)[C@@H](O)[C@H]2O)c(=O)n1 [azacitidine]
- Fold change /veh HAMP (11756126_x_at): 0.87
